Literature values as cited in patent publication US20090075956A1 (priority 2005, published 2009).
Counter-ions that a name gives are not always drawn.

| solubility in alcohol (alcohol) | solubility in ether (ether) | Compound | solubility in organic solvents (organic solvents such as ethanol, ether and chloroform) | solubility in water |
| --- | --- | --- | --- | --- |
|  |  | O=[N+]([O-])O[C@H]1CO[C@H]2[C@@H]1OC[C@H]2O[N+](=O)[O-] [Diluted isosorbide dinitrate, 1,4,3,6-dianhydro-D-glucitol-2,5-dinitrate] | freely soluble | sparingly soluble |
| slightly soluble | very slightly soluble | NNc1nncc2ccccc12 [Hydralazine hydrochloride, hydralazine hydrochloride] |  | soluble |
